# From article PMC10455244, “Alpha-Mangostin: A Potent Inhibitor of TRPV3 and Pro-Inflammatory Cytokine Secretion in Keratinocytes” (International Journal of Molecular Sciences, 2023)
# Key:
# [1] = molecular target: T1, TRPV3 (Homo sapiens, UniProt Q8NET8); experiment: Whole-cell patch-clamp, 2-APB-evoked TRPV3 current in normal human epidermal keratinocytes (NHEK); format: cell-based; set-up: host or cells: NHEK; settings: 100 µM 2-APB, −100 mV, read-out: TRPV3 current inhibited to (normalized to maximum 2-APB response)
# T1 sequence (Q8NET8 1-790): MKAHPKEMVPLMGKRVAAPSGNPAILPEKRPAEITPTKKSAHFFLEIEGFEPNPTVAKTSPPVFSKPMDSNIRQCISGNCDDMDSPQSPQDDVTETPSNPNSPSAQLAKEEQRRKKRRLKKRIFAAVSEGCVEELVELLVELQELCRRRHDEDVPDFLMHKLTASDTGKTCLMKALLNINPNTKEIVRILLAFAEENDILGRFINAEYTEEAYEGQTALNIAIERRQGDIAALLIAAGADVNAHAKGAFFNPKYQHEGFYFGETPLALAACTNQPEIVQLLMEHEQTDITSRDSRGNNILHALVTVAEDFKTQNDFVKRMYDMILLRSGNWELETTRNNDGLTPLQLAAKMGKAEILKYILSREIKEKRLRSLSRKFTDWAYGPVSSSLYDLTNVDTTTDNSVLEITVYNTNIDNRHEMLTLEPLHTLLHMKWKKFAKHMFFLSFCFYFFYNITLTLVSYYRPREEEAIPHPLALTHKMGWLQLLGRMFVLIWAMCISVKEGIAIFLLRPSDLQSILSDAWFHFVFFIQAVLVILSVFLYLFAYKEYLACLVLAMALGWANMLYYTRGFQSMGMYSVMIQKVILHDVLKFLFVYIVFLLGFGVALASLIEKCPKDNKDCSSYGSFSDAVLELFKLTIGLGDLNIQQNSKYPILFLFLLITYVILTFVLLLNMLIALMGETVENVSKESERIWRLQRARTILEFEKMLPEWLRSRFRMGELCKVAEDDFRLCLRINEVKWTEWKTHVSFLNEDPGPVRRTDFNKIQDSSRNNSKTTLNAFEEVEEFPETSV
# [2] = tested on: TRPV3 (G573C)-expressing HEK 293T cells; experiment: cells; format: cell-based; settings: Homo sapiens, 24 h, read-out: Cell viability (normalized O.D., compared with mock cells)
# From the text: (§1) Figure 4 Alpha-mangostin inhibited the activity of hyperactive TRPV3 mutant channels and rescued mutation-induced cell death. (A) Alpha-mangostin inhibited the channel current in representative TRPV3 (G573S)- and TRPV3 (G573C)-expressing HEK 293T cells. […] Currents were normalized to the response at −100 mV before adding alpha-mangostin. (C) Alpha-mangostin inhibited TRPV3-mediated intracellular calcium increase in TRPV3 (G573S)-expressing HEK 293T cells. […] The bar graph on the right summarizes the change in the intracellular calcium rise inhibited by alpha-mangostin. Cells were perfused with calcium-free solutions containing 0 or 1 µM alpha-mangostin or 10 µM 74a before changing to 1.3 mM Ca^2+ solutions containing the same substance concentration. (D) Alpha-mangostin inhibited TRPV3-mediated intracellular calcium increase in TRPV3 (G573C)-expressing HEK 293T cells. […] The bar graph on the right summarizes the change in the intracellular calcium rise inhibited by alpha-mangostin. Cells were perfused with calcium-free solutions containing 0 or 1 µM alpha-mangostin or 10 µM 74a before changing to 1.3 mM Ca^2+ solutions containing the same substance concentration. […]
# (§2) The cell counting kit-8 (CCK8; Dojindo Laboratories, Kumamoto, Japan) was employed for viability assay. […] The optical density (O.D., 450 nm) of each well was measured after incubating the cells with CCK-8 solution ([…]) for 2 h. […]
# [3] = tested on: TRPV3 (G573S)-expressing HEK 293T cells; experiment: cells; format: cell-based; settings: Homo sapiens, 24 h, read-out: Cell viability (normalized O.D., compared with mock cells)
# From the text: as §1, §2
# [4] = tested on: IL-8; experiment: ELISA, carvacrol-induced IL-8 release in NHEK; format: cell-based, human; settings: 1 µM with 300 µM carvacrol, 24 h
# From the text: Constitutive activation of TRPV3 due to continuous stimulation or the presence of Olmsted mutations causes noticeable skin inflammation due to the increased secretion of pro-inflammatory cytokines from the keratinocytes. Besides, in atopic dermatitis (AD), cytokine release from keratinocytes contributes to the inflammatory environment, which drives many characteristic AD symptoms. Therefore, we determined the effect of TRPV3 activation on cytokine release instead of TRPV3 expression and evaluated whether alpha-mangostin suppressed TRPV3-mediated cytokine secretion in normal human keratinocytes. The levels of secreted cytokines (interleukin (IL)-6, IL-8, and tumor necrosis factor-alpha (TNF-α)) were measured using enzyme-linked Immunosorbent assay (ELISA) kits due to their high sensitivity and quantitation ability. The cells were induced with 300 µM carvacrol, with or without 1 µM alpha-mangostin, and 10 µM 74a.
# Figure 5 Alpha-mangostin (α-MG) inhibited carvacrol-induced cytokine release in NHEK cells and rescued carvacrol-induced cell death. (A) Alpha-mangostin inhibited the carvacrol-induced release of IL-8 and IL-6 in NHEK. Cells were induced by 300 µM carvacrol with or without either 1 µM alpha-mangostin or 10 µM 74a for 24 h before the ELISA assay. (B) Alpha-mangostin reduced cell death caused by carvacrol in human keratinocytes. […]
structure (smiles),measurement,setting,value
COc1c(O)cc2oc3cc(O)c(CC=C(C)C)c(O)c3c(=O)c2c1CC=C(C)C [Alpha-mangostin],activity at 0.3 µM,[1]; 0.3 µM,75.1%
same,activity at 3 µM,[1]; 3 µM,27%
same,viability at 1 µM,[2],93.5%
same,viability at 1 µM,[3],86.8%
same,Effect on IL-8 levels,[4],drastically attenuated
